For assay [1], the system named is HEK293 cells cotransfected with the FOP control vector. Kind of assay: HEK293 FOP assay (control reporter with non-functional TCF elements). Type of assay: cell-based. The settings on record: Homo sapiens, 16 hours. A digest of the protocol: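 Stable HEK293 line carrying FOP control reporter (randomized non-functional TCF sites, with pcDNA3), Geneticin-selected, plated 24 h before assay. Stimulated with recombinant human Wnt-3a (2500-5 ng/ml) and compounds 50 μM–15 nM (3.16-fold steps) in CAFTY buffer pH 7.4 with 2 mM Ca2+, 0.01% BSA, run parallel to TOP line.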

In a further assay the target is T1, TNKS1 (Homo sapiens, UniProt O95271).
T1 construct: purchased BPS Bioscience, San Diego, USA 80579 (TNKS1 Histone Ribosylation Assay Kit)
T1 sequence (O95271 1-1327): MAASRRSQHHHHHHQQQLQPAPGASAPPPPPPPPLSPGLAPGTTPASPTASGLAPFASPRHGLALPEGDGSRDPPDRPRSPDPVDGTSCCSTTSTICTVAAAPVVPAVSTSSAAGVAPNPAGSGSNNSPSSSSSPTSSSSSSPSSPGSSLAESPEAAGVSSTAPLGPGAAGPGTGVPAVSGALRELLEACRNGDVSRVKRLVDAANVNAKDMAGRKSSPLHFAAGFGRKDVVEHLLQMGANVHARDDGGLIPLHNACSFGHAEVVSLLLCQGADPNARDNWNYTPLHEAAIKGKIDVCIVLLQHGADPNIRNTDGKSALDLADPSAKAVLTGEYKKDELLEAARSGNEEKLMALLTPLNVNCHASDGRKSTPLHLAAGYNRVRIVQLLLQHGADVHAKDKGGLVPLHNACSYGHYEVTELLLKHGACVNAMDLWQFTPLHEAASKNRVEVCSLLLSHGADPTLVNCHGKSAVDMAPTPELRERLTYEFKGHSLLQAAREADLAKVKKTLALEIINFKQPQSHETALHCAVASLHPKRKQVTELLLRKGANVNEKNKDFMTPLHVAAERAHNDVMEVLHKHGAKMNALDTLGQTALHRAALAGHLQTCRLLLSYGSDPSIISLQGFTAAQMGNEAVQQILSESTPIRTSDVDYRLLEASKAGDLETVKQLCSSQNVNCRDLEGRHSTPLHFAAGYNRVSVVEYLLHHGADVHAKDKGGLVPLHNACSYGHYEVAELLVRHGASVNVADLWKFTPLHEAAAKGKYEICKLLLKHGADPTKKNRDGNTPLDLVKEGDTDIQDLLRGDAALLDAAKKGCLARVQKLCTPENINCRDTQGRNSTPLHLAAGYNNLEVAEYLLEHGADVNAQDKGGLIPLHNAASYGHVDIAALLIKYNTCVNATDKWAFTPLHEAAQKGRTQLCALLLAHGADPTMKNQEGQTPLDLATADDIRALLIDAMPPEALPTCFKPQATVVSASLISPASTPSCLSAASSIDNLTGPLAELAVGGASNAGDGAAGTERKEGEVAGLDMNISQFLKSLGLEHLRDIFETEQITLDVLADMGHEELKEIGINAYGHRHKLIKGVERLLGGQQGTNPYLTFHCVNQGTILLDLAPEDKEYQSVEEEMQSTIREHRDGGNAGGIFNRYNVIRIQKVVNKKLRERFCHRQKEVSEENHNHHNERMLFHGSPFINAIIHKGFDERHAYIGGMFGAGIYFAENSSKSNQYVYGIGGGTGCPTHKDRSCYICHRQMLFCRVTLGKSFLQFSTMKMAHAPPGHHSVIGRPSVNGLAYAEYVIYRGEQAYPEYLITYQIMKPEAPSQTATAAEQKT
Kind of assay: TNKS1 Assay B (auto-parsylation, [3H]-NAD+ SPA). The settings on record: 6 nM TNKS1, auto-parsylation, over night at room temperature. The assay is classed as biochemical.

Our source for the IC50 values is patent publication US20180148418A1, “AMIDO-SUBSTITUTED CYCLOHEXANE DERIVATIVES” (Bayer Pharma Aktiengesellschaft, priority 2015, published 2018).

pIC50: −log10 of the molar value.

What is called pIC50 is −log10 of the IC50, conventionally taken in molar units. Lower therefore signals a high IC50. With `O=C(N[C@H]1CC[C@]2(CCN(c3ccc(F)cc3Cl)C2=O)CC1)c1cnn2cccnc12` [Example 148, N-[(cis)-2-(2-chloro-4-fluorophenyl)-1-oxo-2-azaspiro[4.5]dec-8-yl]pyrazolo[1,5-a]pyrimidine-3-carboxamide], the pIC50 in assay [1] was ≤ 4.30; at TNKS1, 5.41.
For `O=C(N[C@H]1CC[C@H](C(=O)Nc2cnc(C(F)(F)F)cc2Cl)CC1)c1cnn2cccnc12` [Example 149, N-(trans-4-{[4-chloro-6-(trifluoromethyl)pyridin-3-yl]carbamoyl}cyclohexyl)pyrazolo[1,5-a]pyrimidine-3-carboxamide], the pIC50 in assay [1] was ≤ 4.30; at TNKS1, 6.54.
For `Cc1cc(NC(=O)[C@H]2CC[C@H](NC(=O)c3cnn4cccnc34)CC2)c(Cl)cc1F` [Example 150, N-{trans-4-[(2-chloro-4-fluoro-5-methylphenyl)carbamoyl]cyclohexyl}pyrazolo[1,5-a]pyrimidine-3-carboxamide] the same measures were ≤ 4.30 and 6.77.
On the same counts, the results for `Cc1cc(F)cc(Cl)c1NC(=O)[C@H]1CC[C@H](NC(=O)c2cnn3cccnc23)CC1` [Example 151, N-{trans-4-[(2-chloro-4-fluoro-6-methylphenyl)carbamoyl]cyclohexyl}pyrazolo[1,5-a]pyrimidine-3-carboxamide] are ≤ 4.30 and 6.33.
Consider `CCN(c1ccc(F)cc1Cl)C(=O)[C@H]1CC[C@H](NC(=O)c2cnn3cccnc23)CC1` [Example 154, N-{trans-4-[(2-chloro-4-fluorophenyl)(ethyl)carbamoyl]cyclohexyl}pyrazolo[1,5-a]pyrimidine-3-carboxamide], for which the pIC50 is ≤ 4.30 in assay [1] and 7.06 against TNKS1.
Take `CN(c1ccc(F)cc1Cl)C(=O)[C@H]1CC[C@H](NC(=O)c2cnn3cccnc23)CC1` [Example 155, N-{trans-4-[(2-chloro-4-fluorophenyl)(methyl)carbamoyl]cyclohexyl}pyrazolo[1,5-a]pyrimidine-3-carboxamide]: the pIC50 in assay [1] was ≤ 4.30; at TNKS1, 6.85.
As for `CN(c1ccccc1)C(=O)[C@H]1CC[C@H](NC(=O)c2cnn3cccnc23)CC1` [Example 156, N-{trans-4-[methyl(phenyl)carbamoyl]cyclohexyl}pyrazolo[1,5-a]pyrimidine-3-carboxamide], the pIC50 in assay [1] was ≤ 4.30; at TNKS1, 6.41.
Turning to `CNC(=O)c1nc[nH]c1C(=O)N[C@H]1CC[C@H](C(=O)N(CCO)c2ccc(F)cc2Cl)CC1` [Example 157, N^5-{trans-4-[(2-chloro-4-fluorophenyl)(2-hydroxyethyl)carbamoyl]cyclohexyl}-N^4-methyl-1H-imidazole-4,5-dicarboxamide], the pIC50 in assay [1] was ≤ 4.30; against TNKS1, 6.35.
For `CC1CCN(CCNC(=O)c2nc[nH]c2C(=O)N[C@H]2CC[C@@]3(CCN(c4ccc(F)cc4Cl)C3=O)CC2)CC1` [Example 160, N^5-[(trans)-2-(2-chloro-4-fluorophenyl)-1-oxo-2-azaspiro[4.5]dec-8-yl]-N^4-[2-(4-methylpiperidin-1-yl)ethyl]-1H-imidazole-4,5-dicarboxamide] the same measures were ≤ 4.30 and 8.10.
On to `O=C(NCCN1CCCCC1)c1nc[nH]c1C(=O)N[C@H]1CC[C@@]2(CCN(c3ccc(F)cc3Cl)C2=O)CC1` [Example 161, N^5-[(trans)-2-(2-chloro-4-fluorophenyl)-1-oxo-2-azaspiro[4.5]dec-8-yl]-N^4-[2-(piperidin-1-yl)ethyl]-1H-imidazole-4,5-dicarboxamide], for which the pIC50 in assay [1] was ≤ 4.30; against TNKS1, 8.39.
On to `CC(C)NC(=O)c1nc[nH]c1C(=O)N[C@H]1CC[C@@]2(CCN(c3ccc(F)cc3Cl)C2=O)CC1` [Example 162, N^5-[(trans)-2-(2-chloro-4-fluorophenyl)-1-oxo-2-azaspiro[4.5]dec-8-yl]-N^4-isopropyl-1H-imidazole-4,5-dicarboxamide], for which the pIC50 is 4.40 in assay [1] and 7.89 on TNKS1.
For the compound `COCCNC(=O)c1nc[nH]c1C(=O)N[C@H]1CC[C@@]2(CCN(c3ccc(F)cc3Cl)C2=O)CC1` [Example 163, N^5-[(trans)-2-(2-chloro-4-fluorophenyl)-1-oxo-2-azaspiro[4.5]dec-8-yl]-N^4-(2-methoxyethyl)-1H-imidazole-4,5-dicarboxamide], the pIC50 in assay [1] is ≤ 4.30; on TNKS1, 7.89.
Consider `O=C(NC1CC1)c1nc[nH]c1C(=O)N[C@H]1CC[C@@]2(CCN(c3ccc(F)cc3Cl)C2=O)CC1` [Example 165, N^5-[(trans)-2-(2-chloro-4-fluorophenyl)-1-oxo-2-azaspiro[4.5]dec-8-yl]-N^4-cyclopropyl-1H-imidazole-4,5-dicarboxamide], for which the pIC50 in assay [1] was 4.46; on TNKS1, 7.92.
On to `O=C(N[C@H]1CC[C@@]2(CCN(c3ccc(F)cc3Cl)C2=O)CC1)c1[nH]cnc1C(=O)N1CC(F)C1` [Example 166, N-[(trans)-2-(2-chloro-4-fluorophenyl)-1-oxo-2-azaspiro[4.5]dec-8-yl]-4-[(3-fluoroazetidin-1-yl)carbonyl]-1H-imidazole-5-carboxamide], for which the pIC50 is ≤ 4.30 in assay [1] and 8.13 at TNKS1.
